# Measurements from PMC10384408, “Anticancer Tungstenocenes with a Diverse Set of (O,O–), (O,S–) and (O,N–) Chelates—A Detailed Biological Study Using an Improved Evaluation via 3D Spheroid Models” (Pharmaceutics, 2023).
# Legend:
# HCT116 spheroids [1] = experiment: Spheroid growth, HCT116; format: cell-based, human; settings: 10 µM, 96 h treatment
# Experimental: (§1) For growing multicellular tumor spheroids, 400 HCT116, 400 HT29 or 800 MCF-7 cells per well were plated into round-bottom ultra-low attachment 96-well plates (Corning, Glendale, AZ, USA) in the media described above and incubated at 37 °C for 96 h. Spheroids were treated with 10 µM of the two most cytotoxic compounds 3 and 4 for another 96 h. The diameters of the spheroids were measured with Cell^F software under a CKX41 Olympus microscope before treatment and in constant daily intervals over the 96 h treatment period. For statistical analysis the t-test with Welsh’s correction was implemented in GraphPad Prism software (Version 6.01).
# HT29 spheroids = experiment: Spheroid growth, HT29; format: cell-based, human; settings: 10 µM, 96 h treatment
# Experimental: as §1
# MCF-7 spheroids = experiment: Spheroid growth, MCF-7; format: cell-based, human; settings: 10 µM, 96 h treatment
# Experimental: as §1
# HCT116 spheroids [2] = experiment: KI67 immunofluorescence staining of cryo-sectioned spheroids; format: cell-based, human; settings: 72 h; for KI67+ cells: untreated control 38.1 ± 7.3 %
# Experimental: Spheroids were grown and cryosectioned, as described in the section above. For immunofluorescence staining the samples were fixed with 4% PFA (in PBS) for 15 min. The slides were washed with PBS before permeabilization with 0.1% Triton-X (Sigma-Aldrich, Steinheim, Germany) for 10 min. After three times washing with PBS the samples were stained for 45 min with 10% goat serum (G9023, Sigma-Aldrich) und 5% BSA for avoiding non-specific antibody binding. After one washing step a primary antibody against Ki67 (#9129, Cell Signaling Technology) was applied and samples incubated overnight at 4 °C. On the next day, slides were washed with PBS and incubated with goat anti-rabbit Alexa Fluor 594 (#8889 Cell Signaling Technology) for 1 h at room temperature in the dark, followed by two washing steps with PBS. Slides were mounted with ProlonGold Antifade Reagent with DAPI (Invitrogen, Thermo Fisher) and analyzed with a confocal laser scanning microscope Zeiss LSM800 (Zeiss, Jena, Germany). Images were processed with Zen software (Zeiss). For fluorescence signal intensities data extraction ImageJ/Fiji1.46 was used. For quantification, the maximum signal intensity of the KI67^+ cells was evaluated relative to the untreated control. For statistical analysis the t-test with Welsh’s correction was implemented in GraphPad Prism software (Version 6.01).
# pUC19 plasmid = experiment: Electrophoretic dsDNA plasmid assay; format: biochemical; settings: 50 µM, up to 6 h, 37 °C
# Experimental: An amount of 400 ng of the pUC19 plasmid (2686 bp, New England Biolabs, Ipswich, MA, USA) was incubated with the test compounds (50 µM). Stock solutions of the test compounds were prepared in MilliQ water. The samples were incubated for different intervals (15 min to 6 h) with continuous shaking at 37 °C. Following the incubation time, 4 µL aliquots of 6 × DNA loading dye (Thermo Fisher, Kandel, Germany) were added to the 20 µL DNA samples. Electrophoresis was performed in a 1% agarose gel in 1 × TBE buffer, started at 60 V for 5 min and continued at 120 V for 90 min. Ethidium bromide (EtBr, Serva Electrophoresis GmbH, Heidelberg, Germany) staining was conducted in 1 × TBE (0.75 µg/mL) for 20 min. Images were taken by the GelDoc Imaging System Fusion F×7 (Vilber Lourmat, Eberhardzell, Germany). For quantification ImageJ/Fiji1.46 was used.
# [3] = Cell-free DCF fluorescence quenching assay
# Experimental: To verify interactions of complex 4 with the fluorescence of DCF (2′,7′-dichlorofluorescein, Sigma-Aldrich), a fluorescence quenching assay was performed. For this purpose, DCF was dissolved in abs. ethanol (Sigma-Aldrich), diluted in phenol-red-free MEM (1% FBS) to 5 µM and complex 4 dissolved in DMF, diluted to 20 and 200 µM in the same medium. Furthermore, two combinations of 5 µM DCF with 20 and 200 µM of complex 4 were prepared. The fluorescence intensity of the substances alone and their combinations were measured (excitation: 485/20 nm, emission: 516/20 nm) in 10 min intervals with the Synergy HT reader (BioTek) over 2 h.
# HT29 cells = settings: 200 µM
# MCF-7 cells = settings: 200 µM
structure (smiles),measurement,setting,value
"F[P-](F)(F)(F)(F)F.O=c1c([O-])c(-c2ccc(Cl)cc2)oc2ccccc12.[W+4].c1cc[cH-]c1.c1cc[cH-]c1 [Compound 3, Bis(η^5-cyclopentadienyl)[2-(4-chlorophenyl)-3-(oxo-κO)-4(H)-chromen-4-oato-κO]tungsten(IV) hexafluorophosphate]",spheroid growth,HCT116 spheroids [1],markedly reduced growth
same,spheroid growth,HT29 spheroids,completely stop spheroid growth
same,spheroid growth,MCF-7 spheroids,completely stop spheroid growth
same,reduction in number of KI67+ cells relative to untreated control,HCT116 spheroids [2]; 20 µM,2.4 fold
same,KI67+ cells,HCT116 spheroids [2]; 20 µM,15.8 ± 2.8%
same,interaction with plasmid dsDNA,pUC19 plasmid,showing the ability to induce DNA nicks
"F[P-](F)(F)(F)(F)F.[O-]c1c(-c2ccc(Cl)cc2)oc2ccccc2c1=S.[W+4].c1cc[cH-]c1.c1cc[cH-]c1 [Compound 4, Bis(η^5-cyclopentadienyl)[2-(4-chlorophenyl)-3-(oxo-κO)-4(H)-chromen-4-thionato-κS]tungsten(IV) hexafluorophosphate]",spheroid growth,HCT116 spheroids [1],completely stopped spheroid growth
same,spheroid growth,HT29 spheroids,completely stop spheroid growth
same,spheroid growth,MCF-7 spheroids,completely stop spheroid growth
same,reduction in number of KI67+ cells relative to untreated control,HCT116 spheroids [2]; 15 µM,2 fold
same,KI67+ cells,HCT116 spheroids [2]; 15 µM,19.1 ± 1.3%
same,lower fluorescence intensity relative to DCF (5 µM) alone,[3]; DCF 5 µM + complex 20 µM,36.8%
same,lower fluorescence intensity relative to DCF (5 µM) alone,[3]; DCF 5 µM + complex 200 µM,77.2%
"F[P-](F)(F)(F)(F)F.O=C([O-])c1ccccn1.[W+4].c1cc[cH-]c1.c1cc[cH-]c1 [Compound 5, Bis(η^5-cyclopentadienyl)[2-(carboxylato-κO)-pyridine-κN]tungsten(IV) hexafluorophosphate]",viable cells [%] AV- / PI-,HT29 cells,91.5 ± 8.9%
same,viable cells [%] AV- / PI-,MCF-7 cells,86.6 ± 7.6%
"Cc1cc(=S)c([O-])co1.F[P-](F)(F)(F)(F)F.[W+4].c1cc[cH-]c1.c1cc[cH-]c1 [Compound 8, Bis(η^5-cyclopentadienyl)[2-methyl-5-(oxo-κO)-pyran-4-(1H)-thionato-κS] tungsten(IV) hexafluorophosphate]",single-strand breaks (sc form to oc form),pUC19 plasmid,15 ± 2%
